What was measured:
[1] = Solubility in water (vessel cleaning note); assay type: physicochemical; details: Stage 3 vessel cleaning information
[2] = hashed area of FIG. 2; cited from earlier work
humans = details: 0.05 mg/kg to 0.4 mg/kg; bolus injections or prolonged infusions; only mild to moderate adverse effects; cited from earlier work
[3] = test system: individuals who have ingested 5-MeO-DMT; details: cited from earlier work
[4] = cited from earlier work
[5] = self-report, uncontrolled setting, Davis et al. 2018

In the case of `CN(C)CCc1c[nH]c2ccccc12.O=C(O)/C=C/C(=O)O` [API, N,N-DMT fumarate], the Solubility in water [1] is reported as “API highly soluble”.

For `CN(C)CCc1c[nH]c2ccccc12` [DMT, N, N-dimethyltryptamine], the “Effect site concentrations experienced as full dissociation from the external world” value [2] is listed as > 60 ng/mL and the Tolerability (humans) is listed as “well-tolerated”.

For `COc1ccc2[nH]cc(CCN(C)C)c2c1` [Mixture 5-MeO-DMT, 5-methoxy-N, N-dimethyltryptamine], the “Individuals with alcoholism or hazardous drinking reporting improvements” value ([3]; n=75 out of 113) is given as 66%, the “Participants indicating symptoms improved: anxiety” value [3, 5] is given as 69% and the “Participants indicating symptoms improved: depression” value [3, 5] is given as 77%. For the same molecule, the “Participants indicating symptoms improved: post-traumatic stress disorder” value [3, 5] was 79%, the Half-life ([4]; rapidly metabolized, H-W. Shen et al. 2010) was 12 to 19 min and the Oral bioavailability ([4]; without coadministration alongside a monoamine oxidase inhibitor) was “not orally bioavailable”.
